Results: US8039504B2 (priority 2003, dated 2011)
Like-named read-outs stand apart in the source and are kept apart here.

Experiments:
Vaccinia virus (NYCBH) = assay: microbe, parasite or virus in culture; type: cell-based; details: Orthopoxvirus vaccinia, Vero, 72 h
wild type cowpox virus = assay: microbe, parasite or virus in culture; type: cell-based; details: read-out: Cowpox EC50
[1] = read-out: EC50 of reference standards in vaccinia CPE assay

| Compound | EC50 (Vaccinia virus (NYCBH); [1]) | EC50 (Vaccinia virus (NYCBH); read-out: Vaccinia EC50) | EC50 (wild type cowpox virus) |
| --- | --- | --- | --- |
| Nc1ccn(C[C@@H](CO)OCP(=O)(O)O)c(=O)n1 [CDV, (S)-1-(3-hydroxy-2-phosphonylmethoxypropyl)cytosine, reference compound] | 84000 ± 15000 nM |  |  |
| O=C(NN1C(=O)[C@@H]2C3C=CC(C4CC43)[C@@H]2C1=O)c1cccc(Br)c1 (stereo partly drawn) [Example 4, 3-Bromo-N-(3,3a,4,4a,5,5a,6,6a,- octahydro-1,3-dioxo-4,6-ethenocycloprop[f]isoindol-2(1H)-yl)-benzamide] |  | < 500 nM | 1000 to 5000 nM |
| O=C(NN1C(=O)[C@@H]2C3C=CC(C4CC43)[C@@H]2C1=O)c1cccc(Cl)c1 (stereo partly drawn) [Example 5, 3-Chloro-N-(3,3a,4,4a, 5,5a,6,6a,- octahydro-1,3-dioxo-4,6-ethenocycloprop[f]isoindol-2(1H)-yl)-benzamide] |  | 500 to 1000 nM | 500 to 1000 nM |
| O=C(NN1C(=O)[C@@H]2C3C=CC(C4CC43)[C@@H]2C1=O)c1ccccc1Br (stereo partly drawn) [Example 6, 2-Bromo-N-(3,3a,4,4a,5,5a,6,6a,- octahydro-1,3-dioxo-4,6-ethenocycloprop[f]isoindol-2(1H)-yl)-benzamide] |  | 500 to 1000 nM | > 5000 nM |
| O=C(NN1C(=O)[C@@H]2C3C=CC(C4CC43)[C@@H]2C1=O)c1ccccc1Cl (stereo partly drawn) [Example 7, 2-Chloro-N-(3,3a,4,4a,5,5a,6,6a,- octahydro-1,3-dioxo-4,6-ethenocycloprop[f]isoindol-2(1H)-yl)-benzamide] |  | < 500 nM |  |
| O=C(NN1C(=O)[C@@H]2C3C=CC(C4CC43)[C@@H]2C1=O)c1ccc(Cl)cc1 (stereo partly drawn) [Example 8, 4-Chloro-N-(3,3a,4,4a,5,5a,6,6a,- octahydro-1,3-dioxo-4,6-ethenocycloprop[f]isoindol-2(1H)-yl)-benzamide] |  | < 500 nM | 500 to 1000 nM |
| O=C(NN1C(=O)[C@@H]2C3C=CC(C4CC43)[C@@H]2C1=O)c1cccnc1 (stereo partly drawn) [Example 9, N-(3,3a,4,4a,5,5a,6,6a,- octahydro-1,3-dioxo-4,6-ethenocycloprop[f]isoindol-2(1H)-yl)-3-pyridinecarboxamide] |  | < 500 nM | > 5000 nM |
| O=C(NN1C(=O)[C@@H]2C3C=CC(C4CC43)[C@@H]2C1=O)c1ccccn1 (stereo partly drawn) [Example 10, N-(3,3a,4,4a,5,5a,6,6a,- octahydro-1,3-dioxo-4,6-ethenocycloprop[f]isoindol-2(1H)-yl)-2-pyridinecarboxamide] |  | > 5000 nM | > 5000 nM |
| COc1ccc(C(=O)NN2C(=O)[C@@H]3C4C=CC(C5CC54)[C@@H]3C2=O)cc1 (stereo partly drawn) [Example 11, 4-Methoxy-N-(3,3a,4,4a,5,5a,6,6a,- octahydro-1,3-dioxo-4,6-ethenocycloprop[f]isoindol-2(1H)-yl)-benzamide] |  | 1000 to 5000 nM | > 5000 nM |
| O=C(NN1C(=O)[C@@H]2C3C=CC(C4CC43)[C@@H]2C1=O)c1ccc([N+](=O)[O-])cc1 (stereo partly drawn) [Example 12, 4-Nitro-N-(3,3a,4,4a,5,5a,6,6a,- octahydro-1,3-dioxo-4,6-ethenocycloprop[f]isoindol-2(1H)-yl)-benzamide] |  | < 500 nM | < 500 nM |
| O=C(NN1C(=O)[C@@H]2C3C=CC(C4CC43)[C@@H]2C1=O)c1ccc(F)cc1 (stereo partly drawn) [Example 13, 4-Fluoro-N-(3,3a,4,4a,5,5a,6,6a,- octahydro-1,3-dioxo-4,6-ethenocycloprop[f]isoindol-2(1H)-yl)-benzamide] |  | < 500 nM | 500 to 1000 nM |
| O=C(NN1C(=O)[C@@H]2C3C=CC(C4CC43)[C@@H]2C1=O)c1cccc(F)c1 (stereo partly drawn) [Example 14, 3-Fluoro-N-(3,3a,4,4a,5,5a,6,6a,- octahydro-1,3-dioxo-4,6-ethenocycloprop[f]isoindol-2(1H)-yl)-benzamide] |  | < 500 nM | 1000 to 5000 nM |
| O=C(NN1C(=O)C2CCCCC2C1=O)c1ccc(Br)cc1 (stereo not drawn) [Example 17, 4-Bromo-N-(octahydro-1,3-dioxo-2H-isoindol-2-yl)-benzamide] |  | < 500 nM | 1000 to 5000 nM |
| O=C(NN1C(=O)[C@@H]2C3C=CC(CC3)[C@@H]2C1=O)c1ccc(Br)cc1 [Example 18, 4-Bromo-N-bicyclo[2.2.2]oct-5-ene-2,3-dicarboximido-benzamide] |  | < 500 nM | < 500 nM |
| O=C(NN1C(=O)[C@@H]2C3CCC(CC3)[C@@H]2C1=O)c1ccc(Br)cc1 [Example 19, 4-Bromo-N-bicyclo[2.2.2]octane-2,3-dicarboximido-benzamide] |  | < 500 nM | < 500 nM |
| N#Cc1ccc(C(=O)NN2C(=O)[C@@H]3C4C=CC(C5CC54)[C@@H]3C2=O)cc1 (stereo partly drawn) [Example 20, 4-Cyano-N-(3,3a,4,4a,5,5a,6,6a,- octahydro-1,3-dioxo-4,6-ethenocycloprop[f]isoindol-2(1H)-yl)-benzamide] |  | < 500 nM | < 500 nM |
| O=C(NN1C(=O)[C@@H]2C3CCC([C@H]4C[C@@H]34)[C@@H]2C1=O)c1ccc(C(F)(F)F)cc1 [Example 21, 4-Trifluoromethyl-N-(3,3a,4,4a,5,5a,6,6a,- octahydro-1,3-dioxo-4,6-ethanocycloprop[f]isoindol-2(1H)-yl)-benzamide] |  | < 500 nM | < 500 nM |
| Cc1ccc(C(=O)NN2C(=O)[C@@H]3C4C=CC(C5CC54)[C@@H]3C2=O)cc1 (stereo partly drawn) [Example 22, 4-Methyl-N-(3,3a,4,4a,5,5a,6,6a,- octahydro-1,3-dioxo-4,6-ethanocycloprop[f]isoindol-2(1H)-yl)-benzamide] |  | < 500 nM | 1000 to 5000 nM |
| O=C(NN1C(=O)[C@@H]2C3C=CC([C@@H]2C1=O)C31CC1)c1cccc(Br)c1 [Example 23, 3-Bromo-N-(1′,3,3′a,4′,7,7′a-hexahydro-1′,3′,dioxospiro [cyclopropane-1,8′-[4,7]methano[2H]isoindol]-2′-yl)-benzamide] |  | < 500 nM |  |
| O=C(Cc1ccccc1)NN1C(=O)[C@@H]2C3C=CC(C4CC43)[C@@H]2C1=O (stereo partly drawn) [Example 25, N-(3,3a,4,4a,5,5a,6,6a,- octahydro-1,3-dioxo-4,6-ethenocycloprop[f]isoindol-2(1H)-yl)-benzeneacetamide] |  | 500 to 1000 nM | > 5000 nM |
| O=C(NN1C(=O)[C@@H]2C3C=CC(C3)[C@@H]2C1=O)c1ccc(Br)cc1 [Example 26, 4-Bromo-N-(1,3,3a,4,7,7a-hexahydro-1,3,-dioxo-4,7-methano-2H-isoindol-2-yl)-benzamide] |  | < 500 nM |  |
| O=C(NN1C(=O)[C@@H]2C3C=CC(C3)[C@@H]2C1=O)c1ccc(Cl)cc1Cl [Example 27, 2,4-Dichloro-N-(1,3,3a,4,7,7a-hexahydro-1,3,-dioxo-4,7-methano-2H-isoindol-2-yl)-benzamide] |  | 500 to 1000 nM |  |
| O=C(NN1C(=O)[C@@H]2C3C=CC(CC3)[C@@H]2C1=O)c1ccc(C(F)(F)F)cc1 [Example 28, 4-Trifluoromethyl-N-bicylo [2.2.2]oct-5-ene-2,3-dicarboximido-benzamide] |  | < 500 nM | < 500 nM |
| O=C(O)CP(=O)(O)O [PAA, phosphonoacetic acid, reference compound] | 985000 ± 85000 nM |  |  |
